Data on two molecules can be found in US8106208B2, “Benzamide compounds that act as NK receptor antagonists” (Albireo AB, priority 2006, dated 2012).

In one data set the target is T1, human NK1 receptor (Homo sapiens, UniProt P25103).
T1 construct: expressed in transfected cells; from AstraZeneca R&D Wilmington
As to the kind of experiment: FLIPR assay, inhibition of human NK1 receptor activation (intracellular Ca2+ increase). In kind it is cell-based. The note with it: CHO cells with human NK1 receptor; agonist Substance P; pKB converted from IC50. How it is done:
(§1) Chinese Hamster Ovary (CHO) K1 cells (obtained from ATCC) were stably transfected with the human NK2 receptor (hNK2R cDNA in pRc/CMV, Invitrogen) or the human NK3 receptor (hNK3R in pcDNA 3.1/Hygro (+)/IRES/CD8, Invitrogen vector modified at AstraZeneca EST-Bio UK, Alderley Park). The cells were transfected with the cationic lipid reagent LIPOFECTAMINE™ (Invitrogen) and selection was performed with Geneticin (G418, Invitrogen) at 1 mg/ml for the hNK2R transfected cells and with Hygromycin (Invitrogen) at 500 μg/ml for the hNK3R transfected cells. Single cell clones were collected by aid of Fluorescence Activated Cell Sorter (FACS), tested for functionality in a FLIPR assay (see below), expanded in culture and cryopreserved for future use. CHO cells stably transfected with human NK1 receptors originates from AstraZeneca R&D, Wilmington USA. Human NK1 receptor cDNA (obtained from RNA-PCR from lung tissue) was subcloned into pRcCMV (Invitrogen). Transfection was performed by Calcium Phosphate and selection with 1 mg/ml G418. […]
(§2) The activity of a compound of the invention to inhibit NK1/NK2/NK3 receptor activation measured as NK1/NK2/NK3 receptor mediated increase in intracellular Ca^2+ was assessed by the following procedure: […]

For a further data set, the target named is T2, human NK2 receptor (Homo sapiens, UniProt P21452).
T2 construct: expressed in transfected cells
T2 sequence (P21452 1-398): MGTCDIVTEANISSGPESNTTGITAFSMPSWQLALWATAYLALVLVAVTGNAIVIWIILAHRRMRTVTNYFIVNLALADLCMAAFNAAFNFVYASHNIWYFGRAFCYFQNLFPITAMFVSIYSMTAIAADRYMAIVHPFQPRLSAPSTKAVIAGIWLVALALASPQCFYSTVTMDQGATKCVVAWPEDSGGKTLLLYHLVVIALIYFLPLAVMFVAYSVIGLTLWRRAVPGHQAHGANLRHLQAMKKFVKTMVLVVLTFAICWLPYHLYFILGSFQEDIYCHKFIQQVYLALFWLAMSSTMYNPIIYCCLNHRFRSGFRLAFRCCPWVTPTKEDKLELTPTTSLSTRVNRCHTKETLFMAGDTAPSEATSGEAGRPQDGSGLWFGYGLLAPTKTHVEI
As to the kind of experiment: FLIPR assay, inhibition of human NK2 receptor activation (intracellular Ca2+ increase). In kind it is cell-based. To be noted: CHO cells with human NK2 receptor; agonist NKA; pKB converted from IC50. As to the method: as §1, §2

The next data set addresses T3, human NK3 receptor (Homo sapiens, UniProt P29371).
T3 construct: expressed in transfected cells
T3 sequence (P29371 1-465): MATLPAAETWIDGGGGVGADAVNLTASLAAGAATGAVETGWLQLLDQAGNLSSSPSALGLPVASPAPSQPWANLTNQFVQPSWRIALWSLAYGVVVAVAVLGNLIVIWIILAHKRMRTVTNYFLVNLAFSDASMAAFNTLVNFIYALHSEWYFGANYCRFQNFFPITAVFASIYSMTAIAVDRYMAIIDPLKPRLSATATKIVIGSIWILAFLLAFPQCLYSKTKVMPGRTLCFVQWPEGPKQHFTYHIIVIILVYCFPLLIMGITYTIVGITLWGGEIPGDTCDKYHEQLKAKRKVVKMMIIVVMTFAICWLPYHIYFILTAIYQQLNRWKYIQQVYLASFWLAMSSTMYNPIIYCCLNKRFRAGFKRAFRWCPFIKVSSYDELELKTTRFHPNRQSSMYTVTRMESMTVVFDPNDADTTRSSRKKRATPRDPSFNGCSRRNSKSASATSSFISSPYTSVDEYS
The data set is described as follows: FLIPR assay, inhibition of human NK3 receptor activation (intracellular Ca2+ increase). The class given is cell-based. The note with it: CHO cells with human NK3 receptor; agonist Pro-7-NKB; pKB converted from IC50. How it is done: as §1, §2

Data set [1] addresses hERG-encoded potassium channel (Homo sapiens, UniProt Q12809). As to the kind of experiment: Activity against hERG (planar-array-based voltage clamp, Kiss et al.). The class given is cell-based. The source says: The activity of compounds according to formula I against the hERG-encoded potassium channel can be determined according to Kiss L, et al. Assay Drug Dev Technol. 1 (2003), 127-35: “High throughput ion-channel pharmacology: planar-array-based voltage clamp”.
For orientation: hERG is a cardiac potassium channel; its block is linked to QT prolongation.

A further data set has as its target CYP3A4 (Homo sapiens, UniProt P08684). As to the kind of experiment: CYP3A4 inhibition (according to Bapiro et al.). The class given is in vitro ADME. As to the method: The IC50 values tested according to Bapiro et al; Drug Metab. Dispos. 29, 30-35 (2001) were generally greater than 10 μM.
The nature of data set [2]: Metabolic stability in liver microsomes (intrinsic clearance). To be noted: human, pH 7.4, 37° C., read-out: CLint (HLM). In kind it is in vitro ADME. As to the method:
The rate of biotransformation can be measured as either metabolite(s) formation or the rate of disappearance of the parent compound. The experimental design involves incubation of low concentrations of substrate (usually 1.0 μM) with liver microsomes (usually 0.5 mg/ml) and taking out aliquots at varying time points (usually 0, 5, 10, 15, 20, 30, 40 min.). The test compound is usually dissolved in DMSO. The DMSO concentration in the incubation mixture is usually 0.1% or less since more solvent can drastically reduce the activities of some CYP450s. Incubations are done in 100 mM potassium phosphate buffer, pH 7.4 and at 37° C. Acetonitrile or methanol is used to stop the reaction. The parent compound is analysed by HPLC-MS. From the calculated half-life, t1/2, the intrinsic clearance, Clint, is estimated by taking microsomal protein concentration and liver weight into account.
On the technique in general: Microsomes from liver hold many membrane-bound enzymes, among them those of drug oxidation.

Data set [3] relates to Human Neurokinin-2 (NK2) Receptor. The note with it: Bioorganic & Medicinal Chemistry Letters (2003), 13, 2211-2215; cited from earlier work.

Chain of CYP3A4 (P08684 whole entry): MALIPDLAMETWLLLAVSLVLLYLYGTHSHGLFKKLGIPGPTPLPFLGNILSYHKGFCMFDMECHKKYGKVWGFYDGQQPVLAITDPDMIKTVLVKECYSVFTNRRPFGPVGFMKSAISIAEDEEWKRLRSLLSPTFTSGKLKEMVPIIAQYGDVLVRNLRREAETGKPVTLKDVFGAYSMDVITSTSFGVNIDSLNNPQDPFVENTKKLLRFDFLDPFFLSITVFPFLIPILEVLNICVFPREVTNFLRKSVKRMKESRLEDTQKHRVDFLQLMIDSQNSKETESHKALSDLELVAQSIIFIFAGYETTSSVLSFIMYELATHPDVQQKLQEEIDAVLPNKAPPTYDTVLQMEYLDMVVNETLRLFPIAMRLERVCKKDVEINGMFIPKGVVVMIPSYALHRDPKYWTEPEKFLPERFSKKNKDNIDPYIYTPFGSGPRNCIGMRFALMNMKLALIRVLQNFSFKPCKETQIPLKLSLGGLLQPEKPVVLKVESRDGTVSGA
Chain of hERG-encoded potassium channel (Q12809 whole entry): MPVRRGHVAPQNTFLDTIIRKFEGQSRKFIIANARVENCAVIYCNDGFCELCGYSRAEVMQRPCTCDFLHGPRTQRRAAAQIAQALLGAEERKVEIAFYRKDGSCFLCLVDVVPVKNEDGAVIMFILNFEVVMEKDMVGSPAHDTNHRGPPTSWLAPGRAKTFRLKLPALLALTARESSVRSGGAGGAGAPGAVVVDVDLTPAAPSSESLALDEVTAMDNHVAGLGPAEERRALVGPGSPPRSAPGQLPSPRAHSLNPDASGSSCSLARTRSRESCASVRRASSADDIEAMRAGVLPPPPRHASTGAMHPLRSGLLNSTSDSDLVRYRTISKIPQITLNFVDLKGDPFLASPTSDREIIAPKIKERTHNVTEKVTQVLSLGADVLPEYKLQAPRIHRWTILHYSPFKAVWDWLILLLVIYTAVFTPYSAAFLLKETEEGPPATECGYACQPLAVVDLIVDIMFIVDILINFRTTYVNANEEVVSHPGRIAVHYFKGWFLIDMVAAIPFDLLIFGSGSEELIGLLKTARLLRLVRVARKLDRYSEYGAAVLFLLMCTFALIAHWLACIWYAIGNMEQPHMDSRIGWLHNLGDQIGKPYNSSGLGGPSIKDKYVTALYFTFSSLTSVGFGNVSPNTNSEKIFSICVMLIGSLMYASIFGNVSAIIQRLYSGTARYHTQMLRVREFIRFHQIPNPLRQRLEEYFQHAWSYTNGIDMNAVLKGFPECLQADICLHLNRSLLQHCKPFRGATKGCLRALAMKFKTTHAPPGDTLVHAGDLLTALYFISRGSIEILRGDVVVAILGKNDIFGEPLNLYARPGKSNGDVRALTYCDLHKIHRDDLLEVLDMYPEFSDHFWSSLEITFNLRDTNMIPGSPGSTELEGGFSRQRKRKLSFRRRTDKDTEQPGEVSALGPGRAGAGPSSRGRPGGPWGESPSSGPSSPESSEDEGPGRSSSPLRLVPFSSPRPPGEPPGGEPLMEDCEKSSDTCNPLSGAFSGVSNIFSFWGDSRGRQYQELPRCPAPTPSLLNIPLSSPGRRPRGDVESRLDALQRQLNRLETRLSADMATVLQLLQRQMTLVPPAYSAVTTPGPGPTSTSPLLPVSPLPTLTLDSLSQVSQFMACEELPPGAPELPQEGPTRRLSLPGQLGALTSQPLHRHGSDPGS
T1 sequence (P25103 whole entry): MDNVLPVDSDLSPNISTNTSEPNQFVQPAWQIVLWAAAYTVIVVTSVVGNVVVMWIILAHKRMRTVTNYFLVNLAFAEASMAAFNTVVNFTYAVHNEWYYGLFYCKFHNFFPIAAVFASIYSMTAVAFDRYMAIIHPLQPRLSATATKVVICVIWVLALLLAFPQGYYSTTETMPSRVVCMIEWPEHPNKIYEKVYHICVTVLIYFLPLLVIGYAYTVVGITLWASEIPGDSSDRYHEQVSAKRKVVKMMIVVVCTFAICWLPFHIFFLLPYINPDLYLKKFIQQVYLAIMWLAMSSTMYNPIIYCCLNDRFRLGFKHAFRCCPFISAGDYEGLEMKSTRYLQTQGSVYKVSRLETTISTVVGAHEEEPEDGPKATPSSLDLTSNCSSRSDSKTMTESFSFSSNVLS

One may read the IC50 as the concentration that gives 50% inhibition. A higher IC50 goes with lower potency. Take `CN(C[C@@H](CCN1CC(N2CCC(C(=O)N3CCC3)CC2)C1)c1ccc(F)cc1)C(=O)c1cc(Br)cc(C(F)(F)F)c1` [Ex 1, N-[(2S)-4-{3-[4-(Azetidin-1-ylcarbonyl)piperidin-1-yl]azetidin-1-yl}-2-(4-fluorophenyl)butyl]-3-bromo-N-methyl-5-(trifluoromethyl)benzamide]: the Kb was 20 nM at human NK1 receptor, 2.51 nM on human NK2 receptor and 3.98 nM at human NK3 receptor. In addition, the IC50 in data set [1] was 11000 nM; against CYP3A4 it was 13500 nM. Besides, in data set [2], the microsomal CLint at 1 μM was determined as 23 µL/min/mg.

As to `CN(CC(CCN1CC(N2CCOCC2)C1)c1ccc(Cl)c(Cl)c1)C(=O)c1ccccc1` (stereo not shown) [N-[2-(3,4-dichlorophenyl)-4-(3-morpholin-4-ylazetidin-1-yl)butyl]-N-methylbenzamide], in data set [3], the “functional NK2 receptor antagonistic properties” value was “functional NK2 receptor antagonistic properties”.
